The record followed here is PubChem BioAssay AID270 (DTP/NCI, 2004).

Structures are written as SMILES. Where “and” joins values, the source holds several entries; their conditions need not be identical. Identical values can stand only once. Records with an inconclusive call do not appear.

The test system of the test is BDF1 mice, s.c. Lewis lung carcinoma, T/C %. Briefly: NCI In Vivo Anticancer Drug Screen. Data for tumor model Lewis Lung Carcinoma (subcutaneous) in B6D2F1 (BDF1) mice. An outline of the steps: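 First, mice carry a transplantable tumor. Next, groups receive either compound or vehicle. Finally, survival or tumor dimensions in the dosed animals are divided by the corresponding control figure.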

[1] abbreviates: endpoint: median survival time, dose: 50.0 mg/kg/injection, schedule: Q01DX009 (ip), vehicle: saline, higher = longer survival.
The mark [2] stands for this setting: endpoint: median survival time, dose: 100.0 mg/kg/injection, schedule: Q01DX009 (ip), vehicle: saline, higher = longer survival.
Setting [3] is: endpoint: median survival time, dose: 200.0 mg/kg/injection, schedule: Q01DX009 (ip), vehicle: saline, higher = longer survival.

For the compound `O=NN(CCCl)C(=O)NC1CCC(O)CC1` (configuration not stated), the T/C is 104 % of control (endpoint: median survival time, dose: 10.0 mg/kg/injection, schedule: Q01DX001 (ip), vehicle: Klucel (hydroxypropylcellulose) (HPC), higher = longer survival); 112 % of control and 119 % of control (endpoint: median survival time, dose: 10.0 mg/kg/injection, schedule: Q01DX001 (ip), vehicle: other, higher = longer survival); 105 % of control (endpoint: median survival time, dose: 20.0 mg/kg/injection, schedule: Q01DX001 (ip), vehicle: Klucel (hydroxypropylcellulose) (HPC), higher = longer survival); 105 % of control (endpoint: median survival time, dose: 20.0 mg/kg/injection, schedule: Q01DX001 (ip), vehicle: other, higher = longer survival); 186 % of control (endpoint: median survival time, dose: 40.0 mg/kg/injection, schedule: Q01DX001 (ip), vehicle: Klucel (hydroxypropylcellulose) (HPC), higher = longer survival); 202 % of control (endpoint: median survival time, dose: 40.0 mg/kg/injection, schedule: Q01DX001 (ip), vehicle: other, higher = longer survival). For the setting “endpoint: median survival time, dose: 80.0 mg/kg/injection, schedule: Q01DX001 (ip), vehicle: Klucel (hydroxypropylcellulose) (HPC), higher = longer survival”, the T/C was 108 % of control.
With `CN1C(=O)C=CC1=O`, the T/C is, setting by setting: (endpoint: median survival time, dose: 0.5 mg/kg/injection, schedule: Q02DX009 (ip), vehicle: saline, higher = longer survival) 113 % of control; (endpoint: median survival time, dose: 1.0 mg/kg/injection, schedule: Q02DX009 (ip), vehicle: saline, higher = longer survival) 103 % of control; (endpoint: median survival time, dose: 2.0 mg/kg/injection, schedule: Q02DX009 (ip), vehicle: saline, higher = longer survival) 100 % of control; (endpoint: median survival time, dose: 4.0 mg/kg/injection, schedule: Q02DX009 (ip), vehicle: saline, higher = longer survival) 94 % of control.
In the case of `Cc1nnc(NS(=O)(=O)c2ccc(N=Nc3nc4[nH]c(N)nc(=S)c4[nH]3)cc2)s1`, the T/C is, setting by setting: (endpoint: median survival time, dose: 25.0 mg/kg/injection, schedule: Q01DX009 (ip), vehicle: saline, higher = longer survival) 109 % of control; under setting [1], 106 % of control; under setting [2], 98 % of control; under setting [3], 98 % of control.
For `Cc1ccc(N2CCN(CCCN3CCN(c4ccccc4Cl)CC3)CC2)cc1`, the T/C is, setting by setting: (endpoint: mean tumor weight, dose: 22.5 mg/kg/injection, schedule: Q01DX011 (ip), vehicle: carboxymethylcellulose (CMC), higher = larger tumour) 108 % of control; (endpoint: mean tumor weight, dose: 45.0 mg/kg/injection, schedule: Q01DX011 (ip), vehicle: carboxymethylcellulose (CMC), higher = larger tumour) 45 % of control; (endpoint: mean tumor weight, dose: 90.0 mg/kg/injection, schedule: Q01DX011 (ip), vehicle: carboxymethylcellulose (CMC), higher = larger tumour) 38 % of control.
For `CN(CC(=O)O)C(=N)N`, the T/C runs as follows: (endpoint: mean tumor weight, dose: 250.0 mg/kg/injection, schedule: Q01DX011 (ip), vehicle: saline, higher = larger tumour) 57 % of control; (endpoint: mean tumor weight, dose: 500.0 mg/kg/injection, schedule: Q01DX011 (ip), vehicle: saline, higher = larger tumour) 53 % of control; (endpoint: mean tumor weight, dose: 1000.0 mg/kg/injection, schedule: Q01DX011 (ip), vehicle: saline, higher = larger tumour) 67 % of control.
`OCC1OC(n2cnc3c2NC=NC[C@H]3O)CC1O` (some centres not stated): the T/C is 110 % of control (endpoint: median survival time, dose: 0.05 mg/kg/injection, schedule: Q03HX024 (ip), vehicle: saline, higher = longer survival); 86 % of control (endpoint: median survival time, dose: 0.1 mg/kg/injection, schedule: Q03HX024 (ip), vehicle: saline, higher = longer survival); 90 % of control (endpoint: median survival time, dose: 0.4 mg/kg/injection, schedule: Q03HX024 (ip), vehicle: saline, higher = longer survival).
As to `NC(C/[N+]([O-])=N/O)C(=O)O` (configuration not stated), the T/C runs as follows: (endpoint: median survival time, dose: 8.78 mg/kg/injection, schedule: Q01DX010 (ip), vehicle: alkali diluted with saline, higher = longer survival) 103 % of control and 105 % of control; (endpoint: median survival time, dose: 13.2 mg/kg/injection, schedule: Q01DX010 (ip), vehicle: alkali diluted with saline, higher = longer survival) 120 % of control and 121 % of control; (endpoint: median survival time, dose: 19.8 mg/kg/injection, schedule: Q01DX010 (ip), vehicle: alkali diluted with saline, higher = longer survival) 102 % of control; (endpoint: median survival time, dose: 29.6 mg/kg/injection, schedule: Q01DX010 (ip), vehicle: alkali diluted with saline, higher = longer survival) 105 % of control; (endpoint: median survival time, dose: 44.4 mg/kg/injection, schedule: Q01DX010 (ip), vehicle: alkali diluted with saline, higher = longer survival) 114 % of control and 116 % of control; (endpoint: median survival time, dose: 66.7 mg/kg/injection, schedule: Q01DX010 (ip), vehicle: alkali diluted with saline, higher = longer survival) 117 % of control. Moreover, the T/C was 98 % of control (endpoint: median survival time, dose: 100.0 mg/kg/injection, schedule: Q01DX010 (ip), vehicle: alkali diluted with saline, higher = longer survival) and 96 % of control (endpoint: median survival time, dose: 1000.0 mg/kg/injection, schedule: Q01DX001 (ip), vehicle: saline, higher = longer survival).
For the compound `c1cc2n(n1)CCN2`, the T/C reads like this: (endpoint: mean tumor weight (est.), dose: 50.0 mg/kg/injection, schedule: Q01DX009 (ip), vehicle: saline, higher = larger tumour) 56 % of control; (endpoint: mean tumor weight (est.), dose: 100.0 mg/kg/injection, schedule: Q01DX009 (ip), vehicle: saline, higher = larger tumour) 37 % of control; (endpoint: mean tumor weight (est.), dose: 100.0 mg/kg/injection, schedule: Q04DX003 (ip), vehicle: saline, higher = larger tumour) 70 % of control; (endpoint: mean tumor weight (est.), dose: 200.0 mg/kg/injection, schedule: Q01DX009 (ip), vehicle: saline, higher = larger tumour) 36 % of control; (endpoint: mean tumor weight (est.), dose: 200.0 mg/kg/injection, schedule: Q04DX003 (ip), vehicle: saline, higher = larger tumour) 79 % of control; (endpoint: mean tumor weight (est.), dose: 400.0 mg/kg/injection, schedule: Q04DX003 (ip), vehicle: saline, higher = larger tumour) 57 % of control. Besides, the T/C (endpoint: mean tumor weight, dose: 25.0 mg/kg/injection, schedule: Q01DX011 (ip), vehicle: saline, higher = larger tumour) is 97 % of control; the T/C (endpoint: mean tumor weight, dose: 50.0 mg/kg/injection, schedule: Q01DX011 (ip), vehicle: saline, higher = larger tumour) is 84 % of control; the T/C (endpoint: mean tumor weight, dose: 100.0 mg/kg/injection, schedule: Q01DX011 (ip), vehicle: saline, higher = larger tumour) is 82 % of control; the T/C (endpoint: mean tumor weight, dose: 200.0 mg/kg/injection, schedule: Q01DX011 (ip), vehicle: saline, higher = larger tumour) was 7 % of control; the T/C under setting [1] is 122 % of control; the T/C under setting [2] was 100 % of control. Moreover, the T/C is 102 % of control (endpoint: median survival time, dose: 100.0 mg/kg/injection, schedule: Q04DX003 (ip), vehicle: saline, higher = longer survival); 100 % of control under setting [3]; 88 % of control (endpoint: median survival time, dose: 400.0 mg/kg/injection, schedule: Q04DX003 (ip), vehicle: saline, higher = longer survival).
Turning to `c1ccc(CSc2ncnc3nc[nH]c23)nc1`, the T/C is, setting by setting: (endpoint: mean tumor weight, dose: 25.0 mg/kg/injection, schedule: Q01DX011 (ip), vehicle: other, higher = larger tumour) 59 % of control; (endpoint: mean tumor weight, dose: 50.0 mg/kg/injection, schedule: Q01DX011 (ip), vehicle: other, higher = larger tumour) 109 % of control; (endpoint: mean tumor weight, dose: 100.0 mg/kg/injection, schedule: Q01DX011 (ip), vehicle: other, higher = larger tumour) 63 % of control.
As to `CC1=CC2=C(C=O)C(=O)[C@](C)(O)[C@@H](O)C2=CO1`, the T/C (endpoint: median survival time, dose: 1.56 mg/kg/injection, schedule: Q01DX009 (ip), vehicle: saline with Tween-80, higher = longer survival) is 115 % of control; the T/C (endpoint: median survival time, dose: 3.13 mg/kg/injection, schedule: Q01DX009 (ip), vehicle: saline with Tween-80, higher = longer survival) is 153 % of control; the T/C (endpoint: median survival time, dose: 6.25 mg/kg/injection, schedule: Q01DX009 (ip), vehicle: saline with Tween-80, higher = longer survival) was 89 % of control and 120 % of control; the T/C (endpoint: median survival time, dose: 12.5 mg/kg/injection, schedule: Q01DX009 (ip), vehicle: saline with Tween-80, higher = longer survival) is 109 % of control; the T/C (endpoint: median survival time, dose: 25.0 mg/kg/injection, schedule: Q01DX009 (ip), vehicle: saline with Tween-80, higher = longer survival) is 106 % of control.
For `COc1cc(NS(C)(=O)=O)ccc1Nc1c2cccc(C)c2nc2c(C)cccc12`, the T/C (endpoint: median survival time, dose: 6.25 mg/kg/injection, schedule: Q01DX011 (ip), vehicle: saline, higher = longer survival) is 88 % of control; the T/C (endpoint: median survival time, dose: 12.5 mg/kg/injection, schedule: Q01DX011 (ip), vehicle: saline, higher = longer survival) is 113 % of control; the T/C (endpoint: median tumor weight (est.), dose: 25.0 mg/kg/injection, schedule: Q01DX011 (ip), vehicle: saline, higher = larger tumour) is 579 % of control.
Consider `[Cl][Ni+2][Cl].[NH-]CCN1CC1`, for which the T/C is 103 % of control and 115 % of control (endpoint: median survival time, dose: 1.56 mg/kg/injection, schedule: Q01DX009 (ip), vehicle: saline, higher = longer survival); 100 % of control (endpoint: median survival time, dose: 12.5 mg/kg/injection, schedule: Q01DX009 (ip), vehicle: saline, higher = longer survival).
In the case of `NCCCNCCSP(=O)(O)O`, the T/C (endpoint: median survival time, dose: 300.0 mg/kg/injection, schedule: Q01DX001 (ip), vehicle: saline, higher = longer survival) is 93 % of control and 100 % of control; the T/C (endpoint: median survival time, dose: 500.0 mg/kg/injection, schedule: Q01DX001 (ip), vehicle: saline, higher = longer survival) was 77 % of control and 78 % of control.
`CCCN(/C=C/C=C/C=[N+](CCC)CCC)CCC`: the T/C is 114 % of control (endpoint: median survival time, dose: 0.03 mg/kg/injection, schedule: Q01DX009 (ip), vehicle: saline, higher = longer survival); 100 % of control (endpoint: median survival time, dose: 0.05 mg/kg/injection, schedule: Q01DX009 (ip), vehicle: saline, higher = longer survival); 115 % of control (endpoint: median survival time, dose: 0.1 mg/kg/injection, schedule: Q01DX009 (ip), vehicle: saline, higher = longer survival); 108 % of control (endpoint: median survival time, dose: 0.2 mg/kg/injection, schedule: Q01DX009 (ip), vehicle: saline, higher = longer survival).
Consider `CN1CC(=O)NC1=O`, for which the T/C (endpoint: mean tumor weight, dose: 2000.0 mg/kg/injection, schedule: Q01DX011 (ip), vehicle: saline, higher = larger tumour) was 99 % of control and 124 % of control.
`CN(C)C(=O)N(CCCl)N=O`: the T/C runs as follows: (endpoint: median survival time, dose: 6.25 mg/kg/injection, schedule: Q01DX001 (ip), vehicle: water, higher = longer survival) 102 % of control; (endpoint: median survival time, dose: 12.5 mg/kg/injection, schedule: Q01DX001 (ip), vehicle: water, higher = longer survival) 112 % of control.
Turning to `c1ccc([B-]2([C+]3CCCCC3)N3CCCCC3C3CCCCN32)cc1` (configuration not stated), the T/C by setting is: (endpoint: median survival time, dose: 12.5 mg/kg/injection, schedule: Q01DX009 (ip), vehicle: Klucel (hydroxypropylcellulose) (HPC), higher = longer survival) 89 % of control; (endpoint: median survival time, dose: 25.0 mg/kg/injection, schedule: Q01DX009 (ip), vehicle: Klucel (hydroxypropylcellulose) (HPC), higher = longer survival) 106 % of control.
As for `CC(=O)OC1CCC(NC(=O)N(CCCl)N=O)CC1` (configuration not stated), the T/C (endpoint: median survival time, dose: 24.0 mg/kg/injection, schedule: Q01DX001 (ip), vehicle: other, higher = longer survival) is 95 % of control.
